Data as given in ChEMBL document CHEMBL1201862, “PubChem BioAssay data set” (2004).
Active and inactive are the calls of the source.

Assays:
[1] = biological target: T1, Protein skinhead-1 (Caenorhabditis elegans, UniProt P34707); assay type: functional
T1 sequence (P34707 whole entry): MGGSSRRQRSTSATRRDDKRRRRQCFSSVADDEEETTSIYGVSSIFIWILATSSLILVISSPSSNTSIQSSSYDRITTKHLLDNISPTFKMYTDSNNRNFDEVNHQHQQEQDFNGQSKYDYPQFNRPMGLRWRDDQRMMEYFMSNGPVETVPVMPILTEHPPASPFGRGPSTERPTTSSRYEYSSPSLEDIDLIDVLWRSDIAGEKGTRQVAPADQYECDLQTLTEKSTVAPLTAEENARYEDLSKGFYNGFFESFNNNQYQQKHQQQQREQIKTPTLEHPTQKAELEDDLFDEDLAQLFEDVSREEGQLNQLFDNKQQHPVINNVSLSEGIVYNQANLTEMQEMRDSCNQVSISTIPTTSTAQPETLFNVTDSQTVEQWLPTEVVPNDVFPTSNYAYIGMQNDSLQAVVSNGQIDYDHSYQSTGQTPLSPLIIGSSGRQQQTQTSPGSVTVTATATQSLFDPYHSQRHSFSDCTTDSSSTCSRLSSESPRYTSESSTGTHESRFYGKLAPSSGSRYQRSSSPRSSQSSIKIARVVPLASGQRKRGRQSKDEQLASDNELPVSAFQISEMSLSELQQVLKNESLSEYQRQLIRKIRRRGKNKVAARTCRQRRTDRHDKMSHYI

[2] = biological target: Cytochrome P450 2D6 (Homo sapiens, UniProt P10635);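 also: CYP2D6 member of a cytochrome P450 panel assay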
[3] = biological target: T2, fMet-Leu-Phe receptor (Homo sapiens, UniProt P21462); assay: formyl peptide receptor binders – dose response (AID 519); assay type: functional
T2 sequence (P21462 whole entry): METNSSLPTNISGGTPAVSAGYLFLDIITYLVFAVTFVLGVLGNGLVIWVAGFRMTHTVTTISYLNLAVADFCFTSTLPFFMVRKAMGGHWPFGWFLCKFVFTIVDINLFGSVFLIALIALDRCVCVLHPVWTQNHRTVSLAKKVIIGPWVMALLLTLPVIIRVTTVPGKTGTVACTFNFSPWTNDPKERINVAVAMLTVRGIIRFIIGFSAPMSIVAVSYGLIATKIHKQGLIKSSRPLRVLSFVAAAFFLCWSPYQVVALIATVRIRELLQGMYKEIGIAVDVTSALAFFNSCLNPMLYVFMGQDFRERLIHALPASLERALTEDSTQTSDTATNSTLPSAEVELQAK

[4] = biological target: T3, Cytochrome P450 1A2 (Homo sapiens, UniProt P05177);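 also: PubChem cytochrome P450 panel assay, CYP1A2 panel member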
T3 sequence (P05177 whole entry): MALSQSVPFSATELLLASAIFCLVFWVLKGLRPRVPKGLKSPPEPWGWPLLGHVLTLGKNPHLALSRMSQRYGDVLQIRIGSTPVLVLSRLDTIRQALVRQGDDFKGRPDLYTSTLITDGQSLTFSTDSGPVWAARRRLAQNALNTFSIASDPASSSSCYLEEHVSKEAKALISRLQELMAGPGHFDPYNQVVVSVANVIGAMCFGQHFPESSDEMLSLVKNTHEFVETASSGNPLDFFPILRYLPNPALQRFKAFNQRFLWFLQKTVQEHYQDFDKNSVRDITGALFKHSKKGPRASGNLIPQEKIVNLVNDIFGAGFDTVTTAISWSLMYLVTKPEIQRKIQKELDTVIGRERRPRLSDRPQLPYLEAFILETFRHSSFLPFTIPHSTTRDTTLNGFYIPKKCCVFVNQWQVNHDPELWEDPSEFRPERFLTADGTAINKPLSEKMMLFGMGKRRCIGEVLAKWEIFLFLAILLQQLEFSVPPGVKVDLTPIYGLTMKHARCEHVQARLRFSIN

[5] = Luminescence Cell-Based Dose Retest to Confirm Inhibitors of Cancer Stem Cells. [Related pubchem assays (depositor defined):AID2717, AID2721]; assay type: functional; conditions: Homo sapiens
[6] = biological target: T4, Heat shock factor protein 1 (Mus musculus, UniProt P38532); assay: enhancement of HSF1-driven luciferase signal – cell-based, NIH3T3, luminescence, dose retest, confirmation (AID 435004); assay type: functional;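 also: stress induced by proteasome inhibitor MG132 added 30 min after compound; luciferase reporter driven by HSF1 response element in NIH3T3 cells; actives raise luminescence as potentiators of the MG132 stress response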
T4 sequence (P38532 whole entry): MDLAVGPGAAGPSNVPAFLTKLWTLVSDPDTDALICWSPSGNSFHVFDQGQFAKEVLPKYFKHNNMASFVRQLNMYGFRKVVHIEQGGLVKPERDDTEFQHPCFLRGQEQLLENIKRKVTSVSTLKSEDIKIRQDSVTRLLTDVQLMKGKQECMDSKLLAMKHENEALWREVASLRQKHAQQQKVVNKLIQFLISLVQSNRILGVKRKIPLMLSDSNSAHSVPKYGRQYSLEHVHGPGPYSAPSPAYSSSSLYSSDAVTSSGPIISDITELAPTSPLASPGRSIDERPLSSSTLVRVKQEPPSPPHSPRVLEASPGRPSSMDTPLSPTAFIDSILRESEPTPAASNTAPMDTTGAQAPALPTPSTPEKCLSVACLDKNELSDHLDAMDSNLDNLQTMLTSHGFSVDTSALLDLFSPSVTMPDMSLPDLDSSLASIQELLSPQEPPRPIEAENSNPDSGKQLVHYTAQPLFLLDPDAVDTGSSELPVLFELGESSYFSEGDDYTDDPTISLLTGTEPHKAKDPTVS

[7] = viability loss of HMLE_sh_eGFP cells – cell-based, luminescence, counter-screen for HMLE_sh_ECad selective toxicity project, dose response (AID 463074); assay type: functional, Homo sapiens;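 also: HMLE human mammary epithelial cells expressing control shRNA against eGFP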
[8] = microbe, parasite or virus in culture; assay type: functional; conditions: Mycobacterium tuberculosis
[9] = biological target: Nonstructural protein 1 (Influenza A virus, UniProt Q194T2); assay type: functional, Influenza A virus (A/California/07/2009(H1N1))
[10] = alpha-synuclein stem-loop luciferase translation blockers – H4 neuroglioma cells, luminescence, confirmation (AID 1988); assay type: functional, cell-based
[11] = biological target: CAAX prenyl protease 2 (Homo sapiens, UniProt Q9Y256); assay: inhibition of Ras-converting CAAX protease Rce1 – biochemical, yeast membranes, quenched-peptide fluorescence, cherry-pick, dose response (AID 588849)
[12] = luciferase reporter signal suppression in cells – H4 neuroglioma cells, luminescence, dose response (AID 1990); assay type: functional, cell-based
[13] = Luminescence Cell-Based Dose Response HTS to Identify Inhibitors of 5'UTR Stem-Loop Driven Prion Protein mRNA Translation in H4 Neuroglioblastoma Cells. [Related pubchem assays: 1827 (Project Summary), 1813 (Primary HTS)]; assay type: functional
[14] = biological target: Cytochrome P450 2C19 (Homo sapiens, UniProt P33261); assay: Cytochrome panel assay with activity outcomes. Panel member name: p450-cyp2c19 Compounds with AC50 equal or less than 10 uM are considered active; assay type: functional; conditions: read-out: AC50
[15] = biological target: Phospholipase D1 (Homo sapiens, UniProt Q13393); assay: cellular phospholipase D1 inhibition IC50 – cell-based, dose response (AID 602151); assay type: functional;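 also: cellular PLD1 assay in Calu-1 cells stimulated with PMA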
[16] = biological target: Phospholipase D2 (Homo sapiens, UniProt O14939); assay: cellular phospholipase D2 inhibition IC50 – cell-based, dose response (AID 602147); assay type: functional;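 also: cellular assay in HEK293 cells overexpressing GFP-tagged PLD2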
[17] = MIN6 cell viability loss – mouse insulinoma, cytotoxicity control, dose response (AID 2122); assay type: functional;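 also: confirmatory high-throughput counterscreen run to flag cytotoxic compounds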
[18] = decrease of insulin promoter-GFP reporter – imaging, high-content screening, mouse beta cells (AID 1628); assay type: functional; conditions: MIN6
[19] = tested on: Escherichia coli; assay: microbe, parasite or virus in culture
[20] = tested on: BJ; assay: BJ-TERT fibroblast viability loss – cell-based, RAS-independent, luminescence, dose response (AID 1933); assay type: functional; conditions: Homo sapiens
[21] = tested on: BJ; assay: cells; assay type: functional, cell-based; conditions: Homo sapiens
[22] = biological target: T4, Heat shock factor protein 1; assay: decrease of HSF1-responsive luciferase luminescence – cell-based, NIH3T3, dose retest, confirmation (AID 2382); assay type: functional;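 also: NIH3T3 fibroblasts with HSF1-driven luciferase reporter stressed by proteasome inhibitor MG132; luminescence from HSF1-driven luciferase expression after 8 hours of MG132 stress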
[23] = tested on: BJ; assay: growth inhibition of engineered Ras-driven BJ cells – cell-based, alamar blue fluorescence, cherrypicked samples, dose response (AID 2631); assay type: functional; conditions: Homo sapiens;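 also: confirmatory dose-response assay in RAS-dependent BJ fibroblasts engineered with TERT, LT and ST, with cytotoxicity read by fluorescence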
[24] = tested on: BJ; assay: BJ-TERT-LT-ST fibroblast viability loss – cell-based, RAS-independent, luminescence, dose response (AID 1935); assay type: functional; conditions: Homo sapiens;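 also: BJ fibroblasts immortalized with TERT plus LT and ST oncogenes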
[25] = DRD fibroblast viability loss – cell-based, non-viral oncogenic, luminescence, dose response (AID 1934); assay type: functional; conditions: Homo sapiens
[26] = biological target: Phosphoethanolamine/phosphocholine phosphatase (Homo sapiens, UniProt Q8TCT1); assay: SAR assay for compounds that inhibit PHOSPHO1. [Related pubchem assays (depositor defined):AID1545, AID1565, AID1574]
[27] = biological target: Phosphomannomutase 2 (Homo sapiens, UniProt O15305); assay: Counter screen SAR assay for PMM2 inhibitors via a fluorescence intensity assay. [Related pubchem assays (depositor defined):AID1545, AID1574]
[28] = biological target: T5, Mannose-6-phosphate isomerase (Homo sapiens, UniProt P34949); assay: phosphomannose isomerase inhibition – biochemical, fluorescence intensity, confirmation (AID 1535)
T5 sequence (P34949 whole entry): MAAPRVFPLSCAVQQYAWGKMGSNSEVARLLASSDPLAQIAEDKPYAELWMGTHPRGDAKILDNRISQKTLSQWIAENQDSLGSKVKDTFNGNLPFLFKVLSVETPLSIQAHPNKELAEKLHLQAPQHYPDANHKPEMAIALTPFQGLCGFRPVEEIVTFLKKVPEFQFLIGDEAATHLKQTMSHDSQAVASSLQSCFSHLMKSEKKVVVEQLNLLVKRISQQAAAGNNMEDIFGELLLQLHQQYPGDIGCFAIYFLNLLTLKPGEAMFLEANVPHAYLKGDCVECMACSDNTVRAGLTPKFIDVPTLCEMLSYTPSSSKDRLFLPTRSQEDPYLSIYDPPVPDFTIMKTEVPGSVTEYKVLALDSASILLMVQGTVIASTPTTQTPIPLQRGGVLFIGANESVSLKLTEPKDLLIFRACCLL

[29] = biological target: Hexokinase (Trypanosoma brucei, UniProt Q38C41); assay: Confirmation assay for inhibitors of Trypanosoma brucei hexokinase 1-Analogue-first series. [Related pubchem assays (depositor defined):AID1430, AID1632, AID2516, AID2560, AID2579, AID2600, AID449725, AID492951]; assay type: functional
[30] = Counterscreen for AddAB inhibitors: absorbance-based bacterial cell-based high throughput dose response assay for inhibitors of bacterial viability. [Related pubchem assays (depositor defined):AID435030, AID449728, AID449731, AID488942, AID488955, AID488956]; assay type: functional
[31] = HGIII-sPLA2 enzyme inhibition potency – biochemical, QFRET, IC50, dose response (AID 743457);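 also: green fluorescence rise as the enzyme cleaves BODIPY PC-A2 in liposomes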
[32] = biological target: Exodeoxyribonuclease V (Escherichia coli (strain K12), UniProt P04993+P07648+P08394); assay: RecBCD inhibition via phage-restricted bacterial growth – absorbance, V66 E. coli, mutant T4 phage, counter-screen for AddAB inhibitor project, dose response (AID 492957); assay type: functional, cell-based, Escherichia coli str. K-12 substr. MG1655

Chain of Cytochrome P450 2D6 (P10635 whole entry): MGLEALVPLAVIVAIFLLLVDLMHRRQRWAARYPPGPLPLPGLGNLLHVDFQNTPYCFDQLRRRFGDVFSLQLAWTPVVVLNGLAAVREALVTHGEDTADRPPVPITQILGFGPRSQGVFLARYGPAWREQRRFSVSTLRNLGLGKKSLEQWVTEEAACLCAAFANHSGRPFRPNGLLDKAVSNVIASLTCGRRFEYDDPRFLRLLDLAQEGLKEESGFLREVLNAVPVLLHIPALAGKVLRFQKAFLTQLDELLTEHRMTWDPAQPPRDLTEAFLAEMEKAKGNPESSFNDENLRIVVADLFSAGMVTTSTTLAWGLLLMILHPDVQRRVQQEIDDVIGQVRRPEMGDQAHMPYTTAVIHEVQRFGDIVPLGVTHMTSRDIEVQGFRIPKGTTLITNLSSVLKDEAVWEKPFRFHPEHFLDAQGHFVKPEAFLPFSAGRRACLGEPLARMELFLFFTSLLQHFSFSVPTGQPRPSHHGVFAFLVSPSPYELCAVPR
Chain of Phosphoethanolamine/phosphocholine phosphatase (Q8TCT1 whole entry): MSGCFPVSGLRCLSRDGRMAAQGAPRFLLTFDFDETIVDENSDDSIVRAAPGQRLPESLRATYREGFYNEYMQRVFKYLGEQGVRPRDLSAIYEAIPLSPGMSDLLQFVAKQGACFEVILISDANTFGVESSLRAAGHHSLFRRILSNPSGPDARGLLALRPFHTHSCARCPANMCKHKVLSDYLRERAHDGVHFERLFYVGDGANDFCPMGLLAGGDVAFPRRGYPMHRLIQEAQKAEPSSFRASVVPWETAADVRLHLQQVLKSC
Chain of Phospholipase D2 (O14939 whole entry): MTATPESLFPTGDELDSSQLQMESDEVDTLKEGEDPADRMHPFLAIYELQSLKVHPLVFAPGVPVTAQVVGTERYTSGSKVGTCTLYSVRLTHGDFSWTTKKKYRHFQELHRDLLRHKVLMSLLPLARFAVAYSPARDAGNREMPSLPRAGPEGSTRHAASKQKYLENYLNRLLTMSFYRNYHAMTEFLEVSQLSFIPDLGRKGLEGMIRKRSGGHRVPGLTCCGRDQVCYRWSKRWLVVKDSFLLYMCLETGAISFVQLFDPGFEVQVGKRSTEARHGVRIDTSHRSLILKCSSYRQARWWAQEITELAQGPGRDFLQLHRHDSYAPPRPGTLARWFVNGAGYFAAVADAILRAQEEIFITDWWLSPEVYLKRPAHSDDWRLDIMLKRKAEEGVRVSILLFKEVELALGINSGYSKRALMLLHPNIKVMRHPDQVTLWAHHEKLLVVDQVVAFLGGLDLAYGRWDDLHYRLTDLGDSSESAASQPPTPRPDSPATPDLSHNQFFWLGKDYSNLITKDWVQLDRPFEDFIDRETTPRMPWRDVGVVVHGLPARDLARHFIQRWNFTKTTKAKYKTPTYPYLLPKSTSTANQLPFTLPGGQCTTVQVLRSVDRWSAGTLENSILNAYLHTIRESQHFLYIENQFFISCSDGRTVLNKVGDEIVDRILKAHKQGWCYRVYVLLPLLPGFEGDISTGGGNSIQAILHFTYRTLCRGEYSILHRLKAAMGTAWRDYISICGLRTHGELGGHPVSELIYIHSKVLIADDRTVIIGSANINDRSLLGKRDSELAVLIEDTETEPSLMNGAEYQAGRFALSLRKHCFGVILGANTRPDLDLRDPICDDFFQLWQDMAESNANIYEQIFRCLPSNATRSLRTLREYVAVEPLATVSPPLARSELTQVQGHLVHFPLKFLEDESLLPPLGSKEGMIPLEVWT
Chain of Nonstructural protein 1 (Q194T2 whole entry): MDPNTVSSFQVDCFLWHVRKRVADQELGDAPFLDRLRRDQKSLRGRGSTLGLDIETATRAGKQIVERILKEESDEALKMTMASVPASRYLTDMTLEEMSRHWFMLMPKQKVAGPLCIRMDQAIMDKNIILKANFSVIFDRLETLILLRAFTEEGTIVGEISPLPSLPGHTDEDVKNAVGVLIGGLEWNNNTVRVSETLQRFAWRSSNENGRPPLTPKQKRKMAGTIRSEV
Chain of Phosphomannomutase 2 (O15305 whole entry): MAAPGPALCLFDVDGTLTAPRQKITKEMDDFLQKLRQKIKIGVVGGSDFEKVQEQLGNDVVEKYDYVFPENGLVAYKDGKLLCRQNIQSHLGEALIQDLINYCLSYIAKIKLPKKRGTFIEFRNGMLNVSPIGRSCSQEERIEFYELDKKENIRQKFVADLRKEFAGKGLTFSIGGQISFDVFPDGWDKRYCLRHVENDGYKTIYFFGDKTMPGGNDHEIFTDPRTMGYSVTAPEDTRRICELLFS
Chain of Phospholipase D1 (Q13393 whole entry): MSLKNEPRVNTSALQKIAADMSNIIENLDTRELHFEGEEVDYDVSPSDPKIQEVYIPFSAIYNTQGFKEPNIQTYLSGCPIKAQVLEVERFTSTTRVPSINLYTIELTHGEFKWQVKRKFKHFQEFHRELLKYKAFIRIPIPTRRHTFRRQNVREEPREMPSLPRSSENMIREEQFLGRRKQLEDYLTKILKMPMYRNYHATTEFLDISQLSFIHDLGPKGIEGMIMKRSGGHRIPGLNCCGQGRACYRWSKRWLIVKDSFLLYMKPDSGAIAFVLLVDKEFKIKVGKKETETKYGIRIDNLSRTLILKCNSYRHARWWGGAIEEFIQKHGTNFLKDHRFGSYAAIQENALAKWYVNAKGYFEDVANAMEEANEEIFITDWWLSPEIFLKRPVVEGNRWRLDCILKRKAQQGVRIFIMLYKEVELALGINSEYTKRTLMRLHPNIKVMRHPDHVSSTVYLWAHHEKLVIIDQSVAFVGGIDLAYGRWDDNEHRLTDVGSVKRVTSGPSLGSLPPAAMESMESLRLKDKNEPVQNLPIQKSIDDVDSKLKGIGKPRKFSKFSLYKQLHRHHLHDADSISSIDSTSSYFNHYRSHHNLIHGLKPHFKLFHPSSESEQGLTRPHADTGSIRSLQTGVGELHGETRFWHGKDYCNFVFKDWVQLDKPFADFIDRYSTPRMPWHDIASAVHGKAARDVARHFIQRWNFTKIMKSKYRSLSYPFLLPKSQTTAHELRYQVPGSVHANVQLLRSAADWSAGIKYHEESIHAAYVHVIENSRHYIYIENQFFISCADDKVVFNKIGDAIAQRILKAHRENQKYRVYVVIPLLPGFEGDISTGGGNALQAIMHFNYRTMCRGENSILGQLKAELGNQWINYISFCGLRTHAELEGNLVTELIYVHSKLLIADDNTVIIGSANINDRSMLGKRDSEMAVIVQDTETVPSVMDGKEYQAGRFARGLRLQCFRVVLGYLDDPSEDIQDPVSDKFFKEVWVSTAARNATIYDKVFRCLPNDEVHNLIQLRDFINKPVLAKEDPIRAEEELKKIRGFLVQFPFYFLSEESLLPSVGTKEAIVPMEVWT
Chain of CAAX prenyl protease 2 (Q9Y256 whole entry): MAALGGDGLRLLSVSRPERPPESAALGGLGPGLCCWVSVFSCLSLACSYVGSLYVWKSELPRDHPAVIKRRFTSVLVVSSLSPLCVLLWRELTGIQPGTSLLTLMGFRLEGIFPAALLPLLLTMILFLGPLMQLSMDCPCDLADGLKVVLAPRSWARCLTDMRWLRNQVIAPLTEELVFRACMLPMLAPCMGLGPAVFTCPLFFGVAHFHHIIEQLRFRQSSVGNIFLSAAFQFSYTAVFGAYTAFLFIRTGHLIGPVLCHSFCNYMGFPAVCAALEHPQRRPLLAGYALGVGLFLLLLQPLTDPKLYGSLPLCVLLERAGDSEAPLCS
Chain of Cytochrome P450 2C19 (P33261 whole entry): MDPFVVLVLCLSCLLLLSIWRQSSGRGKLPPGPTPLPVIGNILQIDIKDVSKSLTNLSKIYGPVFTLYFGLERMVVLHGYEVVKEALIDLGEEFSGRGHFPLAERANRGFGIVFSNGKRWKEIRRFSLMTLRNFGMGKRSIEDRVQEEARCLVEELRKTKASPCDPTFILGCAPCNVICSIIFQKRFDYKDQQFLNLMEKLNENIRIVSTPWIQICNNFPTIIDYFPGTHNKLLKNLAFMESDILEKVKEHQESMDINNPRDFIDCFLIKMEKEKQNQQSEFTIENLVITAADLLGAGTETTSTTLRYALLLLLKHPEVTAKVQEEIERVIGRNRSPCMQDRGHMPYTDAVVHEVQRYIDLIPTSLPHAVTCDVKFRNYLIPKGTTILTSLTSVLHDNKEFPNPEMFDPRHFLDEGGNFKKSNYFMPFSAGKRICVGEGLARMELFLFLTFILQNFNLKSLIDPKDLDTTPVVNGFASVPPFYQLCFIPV
Chain of Hexokinase (Q38C41 whole entry): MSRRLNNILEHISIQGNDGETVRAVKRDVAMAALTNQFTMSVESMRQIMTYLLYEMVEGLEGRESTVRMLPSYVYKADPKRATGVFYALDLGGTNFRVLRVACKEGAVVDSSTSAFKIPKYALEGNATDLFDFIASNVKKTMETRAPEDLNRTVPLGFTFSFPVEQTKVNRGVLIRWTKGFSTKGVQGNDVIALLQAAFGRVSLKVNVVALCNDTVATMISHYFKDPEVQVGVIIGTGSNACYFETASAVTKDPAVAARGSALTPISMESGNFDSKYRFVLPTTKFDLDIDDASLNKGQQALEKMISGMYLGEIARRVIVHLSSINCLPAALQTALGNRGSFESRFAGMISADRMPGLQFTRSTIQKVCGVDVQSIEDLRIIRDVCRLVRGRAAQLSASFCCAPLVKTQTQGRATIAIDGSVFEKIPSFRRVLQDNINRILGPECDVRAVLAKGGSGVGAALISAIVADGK

SMILES: Cc1ccc(C)c(-n2c(CNC(=O)c3ccco3)nnc2SCC(=O)N2CCc3ccccc32)c1
- IC50 [1]: > 100 µM (inactive)
- AC50 [2]: inconclusive
- Ki [3]: > 66.7 µM (inactive)
- AC50 [4]: 2.51 µM (inconclusive)

SMILES: O=C1C2CC=CCC2C(=O)N1c1ccc(NCCc2ccccc2)c([N+](=O)[O-])c1 (stereo not given)
- AC50 [5]: 0.209 µM (active)
- EC50 [6]: 13.4 µM (active)
- AC50 [7]: 36.3 µM (active)

SMILES: COc1ccc(/C=C2\CCC/C(=C\C=N\N(C)C)C2=O)cc1
- CC50 [8]: 9.83 µM (active)
- AC50 [5]: 25 µM (active)
- IC50 [9]: 50.6 µM (active)
- AC50 [7]: 20.8 µM (active)

SMILES: CN(C)CCCN(C(=O)c1cc(-c2cccs2)nc2ccccc12)c1nc2ccc(F)cc2s1
- CC50 [8]: 25.1 µM (active)
- EC50 [10]: 8.08 µM (active)
- AC50 [11]: 29 µM (active)
- EC50 [12]: > 60 µM (not active)
- EC50 [13]: 12.2 µM (active)

SMILES: Cc1ccc(OCC(=O)NNC(=O)CCC(=O)NCc2ccccc2)cc1
- AC50 [2]: inconclusive
- AC50 [14]: 0.00562 µM (inconclusive)

SMILES: O=C(NCCN1CCC(n2c(=O)[nH]c3ccccc32)CC1)c1cc([N+](=O)[O-])cc([N+](=O)[O-])c1
- IC50 [15]: 0.27 µM (active)
- IC50 [16]: 1.32 µM (active)

SMILES: CCCOc1ccccc1N=C(N)Nc1nc(C)cc(C)n1
- IC50 [17]: 2.56 µM (active)
- IC50 [18]: 1.29 µM (active)

SMILES: Cc1c(N=C2NC3(CCCCC3)Cc3ccccc32)c(=O)n(-c2ccccc2)n1C
- AC50 [19]: > 150 µM (inactive)

SMILES: O=C(NCCN1CCC(n2c(=O)[nH]c3ccccc32)CC1)Nc1cccc(F)c1
- IC50 [15]: 0.078 µM (active)
- IC50 [16]: 2.3 µM (active)

SMILES: COc1cc(-c2nnc3sc(-c4cccs4)nn23)cc(OC)c1OC
- IC50 [17]: 13.9 µM (inactive)
- IC50 [18]: 1.64 µM (active)

SMILES: CC(C)c1onc(C(=O)N2CCN(C(c3ccccc3)c3ccccc3)CC2)c1[N+](=O)[O-]
- EC50 [20]: 0.621 µM (inconclusive)
- EC50 [21]: 14.4 µM (inconclusive)
- EC50 [22]: 3.16 µM (active)
- EC50 [23]: 5.72 µM (active)
- EC50 [24]: > 150 µM (not active)
- EC50 [25]: 2.69 µM (active)

SMILES: OCCN1CCN(C(S)=Nc2ccc(Oc3ccccc3)cc2)CC1
- AC50 [19]: 82.3 µM (active)

SMILES: CN(C)c1ccc(-n2sc3ccccc3c2=O)cc1
- IC50 [26]: 11.4 µM (inactive)
- IC50 [27]: > 100 µM (inactive)
- IC50 [28]: 21.4 µM (active)

SMILES: O=c1c2ccccc2sn1-c1cccc(S(=O)(=O)Nc2ccc(Cl)cc2)c1
- IC50 [26]: 8.2 µM (inactive)
- IC50 [27]: 9.44 µM (active)
- IC50 [28]: 1.59 µM (active)

SMILES: COc1ccc(C(=O)Nc2cc(Cl)ccc2[N+](=O)[O-])cc1
- IC50 [29]: > 25 µM (inactive)

SMILES: O=C(NC(=S)NNC(=O)c1ccccc1O)c1cccs1
- IC50 [30]: 66.1 µM (inactive)
- IC50 [9]: 10.6 µM (active)
- IC50 [31]: > 122 µM (inactive)
- IC50 [32]: 79.9 µM (inactive)
